Source: ChEMBL document CHEMBL6153040, “Discovery of the salicylaldehyde-based compound DDO-02267 as a lysine-targeting covalent inhibitor of ALKBH5” (Eur J Med Chem, 2025)
Active and inactive are the calls of the source. No cut-off for these calls is given here.

What was measured:
MV4-11 = experiment: Downregulation of AXL mRNA expression levels in human MV4-11 cells at 10 to 80 uM incubated for 72 hrs by qRT-PCR analysis; format: functional, cell-based; details: dose 10-80 µM
RNA demethylase ALKBH5 [1] = target: T1, RNA demethylase ALKBH5 (Homo sapiens, UniProt Q6P6C2); experiment: Inhibition of ALKBH5 in human MV4-11 cells assessed as increase in m6A methylation levels by m6A RNA Methylation Quantification Kit based colorimetric analysis; format: cell-based; details: dose 10-80 µM
Target sequence in this assay (Q6P6C2 2-394 limits assumed): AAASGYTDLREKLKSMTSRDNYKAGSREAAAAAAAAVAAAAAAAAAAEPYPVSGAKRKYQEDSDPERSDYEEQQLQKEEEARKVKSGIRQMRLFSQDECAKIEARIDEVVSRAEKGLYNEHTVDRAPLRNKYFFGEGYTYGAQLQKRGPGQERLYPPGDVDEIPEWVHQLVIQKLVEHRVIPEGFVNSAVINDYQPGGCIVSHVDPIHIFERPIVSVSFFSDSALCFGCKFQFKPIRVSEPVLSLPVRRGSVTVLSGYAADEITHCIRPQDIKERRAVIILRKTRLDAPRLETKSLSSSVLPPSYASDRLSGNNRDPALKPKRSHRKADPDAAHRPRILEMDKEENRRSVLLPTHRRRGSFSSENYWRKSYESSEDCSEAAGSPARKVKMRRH

[2] = target: T2, Alpha-ketoglutarate-dependent dioxygenase FTO (Homo sapiens, UniProt Q9C0B1); experiment: Binding affinity to FTO (32 to 505 residues) (unknown origin) extracted from Escherichia coli BL21 (DE3) cells assessed as dissociation constant by ITC assay
MOLM-13 [3] = experiment: Induction of cell cycle arrest in human MOLM-13 cells assessed as accumulation of cells at S phase at 80 uM incubated for 72 hrs by flow cytometry analysis (reference value: 17.47 %); format: functional
RNA demethylase ALKBH5 [4] = target: T1, RNA demethylase ALKBH5; experiment: Binding affinity to ALKBH5 (66 to 292 residues) (unknown origin) extracted from Escherichia coli BL21 (DE3) cells assessed as dissociation constant incubated for 5 hrs by MST analysis
Target sequence in this assay (Q6P6C2 whole entry, the tested form may be a part): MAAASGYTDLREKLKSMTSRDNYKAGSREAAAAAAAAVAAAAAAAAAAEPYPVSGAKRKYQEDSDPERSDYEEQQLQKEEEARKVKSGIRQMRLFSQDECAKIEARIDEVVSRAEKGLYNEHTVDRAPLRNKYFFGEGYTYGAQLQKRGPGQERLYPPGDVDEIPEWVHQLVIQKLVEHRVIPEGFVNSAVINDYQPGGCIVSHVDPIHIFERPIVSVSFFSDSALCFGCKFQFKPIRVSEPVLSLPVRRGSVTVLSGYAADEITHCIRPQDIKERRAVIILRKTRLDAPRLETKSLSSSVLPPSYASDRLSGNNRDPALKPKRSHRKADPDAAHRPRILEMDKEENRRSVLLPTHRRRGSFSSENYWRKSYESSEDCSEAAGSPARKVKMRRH

MOLM-13 [5] = experiment: Induction of cell cycle arrest in human MOLM-13 cells assessed as accumulation of cells at S phase at 40 uM incubated for 72 hrs by flow cytometry analysis (reference value: 17.47 %); format: functional
[6] = target: T2, Alpha-ketoglutarate-dependent dioxygenase FTO; experiment: Inhibition of FTO (32 to 505 residues) (unknown origin) extracted from Escherichia coli BL21 (DE3) cells by fluorescence polarization assay
MOLM-13 [7] = experiment: Induction of apoptosis in human MOLM-13 cells assessed as viable cells at 40 uM incubated for 72 hrs by Annexin V FITC/PI staining based flow cytometry analysis (reference value: 89.65%); format: functional; details: read-out: Activity
RNA demethylase ALKBH5 [8] = target: T1, RNA demethylase ALKBH5; experiment: Inhibition of ALKBH5 (66 to 292 residues) (unknown origin) extracted from Escherichia coli BL21 (DE3) cells using m6A ssDNA as substrate measured immediately by fluorescence polarization assay
Target sequence in this assay (Q6P6C2 whole entry, the tested form may be a part): as above

MOLM-13 [9] = experiment: Induction of cell cycle arrest in human MOLM-13 cells assessed as accumulation of cells at G2/M phase at 40 uM incubated for 72 hrs by flow cytometry analysis (reference value: 17.53 %); format: functional
RNA demethylase ALKBH5 [10] = target: T1, RNA demethylase ALKBH5; experiment: Inhibition of ALKBH5 (66 to 292 residues) (unknown origin) extracted from Escherichia coli BL21 (DE3) cells using m6A ssDNA as substrate assessed as Kinact/Ki ratio measured after 6 hrs by fluorescence polarization assay
Target sequence in this assay (Q6P6C2 2-394 limits assumed): as the sequence (Q6P6C2 2-394 limits assumed) above

[11] = system: RNA demethylase ALKBH5 (Homo sapiens), Q6P6C2 [K132E]; experiment: Induction of thermal stabilization of ALKBH5 K132E mutant (66 to 292 residues) (unknown origin) extracted from Escherichia coli BL21 (DE3) cells assessed as melting temperature by thermal shift assay (reference value: 47.05 degreeC)
RNA demethylase ALKBH5 [12] = target: T1, RNA demethylase ALKBH5; experiment: Binding affinity to ALKBH5 in human MOLM-13 cells assessed as protection of pronase-mediated protein degradation at 12.5 to 50 uM preincubated for 30 mins followed by protease addition and measured after 10 mins by DARTS method; format: cell-based; details: dose 12.5-50 µM, time 40.0 min
Target sequence in this assay (Q6P6C2 2-394 limits assumed): as above

[13] = target: T3, Alpha-ketoglutarate-dependent dioxygenase alkB homolog 3 (Homo sapiens) (UniProt Q96Q83); experiment: Induction of thermal stabilization of ALKBH3 (unknown origin) assessed as change in melting temperature by thermal shift assay
T3 sequence (whole entry): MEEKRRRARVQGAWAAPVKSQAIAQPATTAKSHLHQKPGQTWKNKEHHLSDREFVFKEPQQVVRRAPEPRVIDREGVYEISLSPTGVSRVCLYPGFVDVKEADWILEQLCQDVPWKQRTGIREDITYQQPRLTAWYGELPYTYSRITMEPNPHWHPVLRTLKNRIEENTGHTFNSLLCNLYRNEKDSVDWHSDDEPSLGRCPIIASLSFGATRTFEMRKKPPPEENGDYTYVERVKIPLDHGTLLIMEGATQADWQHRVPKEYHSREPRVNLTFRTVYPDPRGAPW

[14] = system: RNA demethylase ALKBH5 (Homo sapiens), Q6P6C2 [K132E]; experiment: Induction of thermal stabilization of ALKBH5 K132E mutant (66 to 292 residues) (unknown origin) extracted from Escherichia coli BL21 (DE3) cells assessed as change in melting temperature by thermal shift assay
RNA demethylase ALKBH5 [15] = target: T1, RNA demethylase ALKBH5; experiment: Inhibition of ALKBH5 (66 to 292 residues) (unknown origin) extracted from Escherichia coli BL21 (DE3) cells using m6A ssDNA as substrate measured after 6 hrs by fluorescence polarization assay
Target sequence in this assay (Q6P6C2 whole entry, the tested form may be a part): as the sequence (Q6P6C2 whole entry, the tested form may be a part) above

RNA demethylase ALKBH5 [16] = target: T1, RNA demethylase ALKBH5; experiment: Inhibition of ALKBH5 (66 to 292 residues) (unknown origin) extracted from Escherichia coli BL21 (DE3) cells using m6A ssDNA as substrate measured after 240 mins by fluorescence polarization assay
Target sequence in this assay (Q6P6C2 whole entry, the tested form may be a part): as above

[17] = Selectivity ratio of IC50 for ALKBH3 (unknown origin) to IC50 for ALKBH5 (66 to 292 residues) (unknown origin) extracted from Escherichia coli BL21 (DE3) cells by restriction enzyme digestion assay
RNA demethylase ALKBH5 [18] = target: T1, RNA demethylase ALKBH5; experiment: Covalent binding affinity to ALKBH5 (66 to 292 residues) (unknown origin) extracted from Escherichia coli BL21 (DE3) cells at Lys132 residue by HPLC-MS/MS analysis
Target sequence in this assay (Q6P6C2 2-394 limits assumed): as the sequence (Q6P6C2 2-394 limits assumed) above

RNA demethylase ALKBH5 [19] = target: T1, RNA demethylase ALKBH5; experiment: Inhibition of ALKBH5 (66 to 292 residues) (unknown origin) extracted from Escherichia coli BL21 (DE3) cells using m6A ssDNA as substrate incubated for 2 hrs by TBE-PAGE based restriction enzyme digestion assay
Target sequence in this assay (Q6P6C2 whole entry, the tested form may be a part): as the sequence (Q6P6C2 whole entry, the tested form may be a part) above

MOLM-13 [20] = experiment: Downregulation of AXL mRNA expression levels in human MOLM-13 cells at 10 to 80 uM incubated for 72 hrs by qRT-PCR analysis; format: functional, cell-based; details: dose 10-80 µM
MOLM-13 [21] = experiment: Induction of cell cycle arrest in human MOLM-13 cells assessed as accumulation of cells at G2/M phase at 80 uM incubated for 72 hrs by flow cytometry analysis (reference value: 17.53 %); format: functional
RNA demethylase ALKBH5 [22] = target: T1, RNA demethylase ALKBH5; experiment: Inhibition of ALKBH5 (66 to 292 residues) (unknown origin) extracted from Escherichia coli BL21 (DE3) cells using m6A ssDNA as substrate measured after 20 mins by fluorescence polarization assay
Target sequence in this assay (Q6P6C2 whole entry, the tested form may be a part): as above

RNA demethylase ALKBH5 [23] = target: T1, RNA demethylase ALKBH5; experiment: Inhibition of ALKBH5 (66 to 292 residues) (unknown origin) extracted from Escherichia coli BL21 (DE3) cells using m6A ssDNA as substrate measured after 2 hrs by fluorescence polarization assay
MOLM-13 [24] = experiment: Induction of apoptosis in human MOLM-13 cells assessed as early apoptotic cells at 80 uM incubated for 72 hrs by Annexin V FITC/PI staining based flow cytometry analysis (reference value: 4.32%); format: functional
RNA demethylase ALKBH5 [25] = target: T1, RNA demethylase ALKBH5; experiment: Binding affinity to ALKBH5 (66 to 292 residues) (unknown origin) extracted from Escherichia coli BL21 (DE3) cells at 1:1 protein:compound ratio by mass spectrometry analysis
Target sequence in this assay (Q6P6C2 2-394 limits assumed): as the sequence (Q6P6C2 2-394 limits assumed) above

RNA demethylase ALKBH5 [26] = target: T1, RNA demethylase ALKBH5; experiment: Potency index, ratio of 2-(((2-nitrophenyl)sulfonyl)carbamoyl)isonicotinic acid IC50 to test compound IC50 for inhibition of ALKBH5 (66 to 292 residues) (unknown origin) extracted from Escherichia coli BL21 (DE3) cells using m6A ssDNA as substrate measured after 1 hrs by fluorescence polarization assay
Target sequence in this assay (Q6P6C2 2-394 limits assumed): as above

RNA demethylase ALKBH5 [27] = target: T1, RNA demethylase ALKBH5; experiment: Binding affinity to ALKBH5 (66 to 292 residues) (unknown origin) extracted from Escherichia coli BL21 (DE3) cells assessed as dissociation constant incubated for 1 hrs by MST analysis

Chain of RNA demethylase ALKBH5 (Homo sapiens), Q6P6C2 [K132E] (Q6P6C2 whole entry K132E, the tested form may be a part): as the sequence (Q6P6C2 whole entry, the tested form may be a part) above, with K132E counted along it
T2 sequence (Q9C0B1 whole entry, the tested form may be a part): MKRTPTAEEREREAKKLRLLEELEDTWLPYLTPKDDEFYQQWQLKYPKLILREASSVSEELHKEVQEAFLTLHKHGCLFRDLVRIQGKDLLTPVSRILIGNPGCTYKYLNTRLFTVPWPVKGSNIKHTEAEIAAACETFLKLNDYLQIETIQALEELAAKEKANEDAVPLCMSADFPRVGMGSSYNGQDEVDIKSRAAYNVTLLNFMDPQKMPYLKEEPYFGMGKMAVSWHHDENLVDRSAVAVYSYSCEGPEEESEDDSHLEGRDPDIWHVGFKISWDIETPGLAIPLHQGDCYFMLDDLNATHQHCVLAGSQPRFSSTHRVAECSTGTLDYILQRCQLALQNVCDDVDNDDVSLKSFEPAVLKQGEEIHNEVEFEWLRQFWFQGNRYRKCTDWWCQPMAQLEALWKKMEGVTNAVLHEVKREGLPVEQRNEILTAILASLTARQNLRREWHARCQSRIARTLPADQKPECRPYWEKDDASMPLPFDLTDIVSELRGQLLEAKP

Question: Which results are given for `O=Cc1cc(S(=O)(=O)NC(=O)c2cc(C(=O)O)ccn2)c2ccccc2c1O`?
Answer: Activity (MV4-11): Active; inhibition (RNA demethylase ALKBH5 [1]): Dose-dependent-effect; Kd [2]: 27600 nM; Activity (MOLM-13 [3]): 4.11%; Kd (RNA demethylase ALKBH5 [4]): 560 nM; Activity (MOLM-13 [5]): 5.67%; IC50 [6]: 14200 nM; viability at 40 µM (MOLM-13 [7]): 83%; IC50 (RNA demethylase ALKBH5 [8]): 1430 nM; Activity (MOLM-13 [9]): 26.1%; Ratio (RNA demethylase ALKBH5 [10]): 0.03 µM⁻¹ min⁻¹; Tm [11]: 46.1 °C; Activity (RNA demethylase ALKBH5 [12]): Active; ΔTm [13]: < 1 °C; ΔTm [14]: < 1 °C; IC50 (RNA demethylase ALKBH5 [15]): 170 nM; IC50 (RNA demethylase ALKBH5 [16]): 260 nM; Ratio IC50 [17]: 30; Activity (RNA demethylase ALKBH5 [18]): Active; IC50 (RNA demethylase ALKBH5 [19]): 2530 nM; Activity (MOLM-13 [20]): Active; Activity (MOLM-13 [21]): 22.22%; IC50 (RNA demethylase ALKBH5 [22]): 780 nM; IC50 (RNA demethylase ALKBH5 [23]): 350 nM; Activity (MOLM-13 [24]): 9.16%; Activity (RNA demethylase ALKBH5 [25]): Active; Mass Peak Of 28,181.6 Da Observed; Ratio IC50 (RNA demethylase ALKBH5 [26]): 287; Kd (RNA demethylase ALKBH5 [27]): 2630 nM
